We go through 6 molecules from ChEMBL document CHEMBL1121704, “Fluorinated retinoic acids and their analogues. 2. Synthesis and biological activity of aromatic 4-fluoro analogues” (1981).

SMILES strings stand for the structures.

Common to all, as to type: functional
The test system of assay [1] is Mus musculus. The experiment in a line: In vivo anti-papilloma activity against chemically induced skin papillomas in mice at dose of 5(mg/kg)/day.
Assay [2] concerns Mus musculus. The experiment in a line: In vivo anti-papilloma activity against chemically induced skin papillomas in mice at dose of 20(mg/kg)/day.
Assay [3] is filed under the species Mus musculus. Briefly: Hypervitaminosis dose determined as a measure of toxicity.
Assay [4] relates to Mus musculus. The experiment in a line: In vivo anti-papilloma activity against chemically induced skin papillomas in mice at dose of 10 mg/kg/day.
The subject of assay [5] is Mus musculus. The experiment in a line: In vivo anti-papilloma activity against chemically induced skin papillomas in mice at dose of 80(mg/kg)/day.
In assay [6] the test system is Mus musculus. The experiment in a line: In vivo anti-papilloma activity against chemically induced skin papillomas in mice at dose of 40 mg/kg/day.

Turning to `CCOC(=O)/C=C(C)/C(F)=C/C=C(C)/C=C/c1c(Cl)cc(OC)c(C)c1C`, the Antipapilloma activity with Mus musculus [1] is -41%; in the assay on Mus musculus [2], -59%; with Mus musculus [4], -60%. Also, the Dose in the assay filed under Mus musculus [3] worked out at 50 mg/kg/day.

For the molecule `CCOC(=O)/C=C(C)/C(F)=C/C=C(C)/C=C/c1c(C)cc(OC)c(C)c1Cl`, the Antipapilloma activity with Mus musculus [2] was -73%. The molecule also displayed a Dose in the assay filed under Mus musculus [3] of 50 mg/kg/day.

Take `CCOC(=O)/C=C(C)/C(F)=C/C=C(C)/C=C/c1c(C)cc(OC)c(C)c1C`: the Antipapilloma activity in the assay with Mus musculus [1] is -43%; in the assay on Mus musculus [2] it was -62%; in the assay with Mus musculus [5], -82%; in the assay on Mus musculus [6], -69%; in the assay with Mus musculus [4], -76%. In the assay filed under Mus musculus [3], this molecule showed a Dose of 50 mg/kg/day.

Take `CCOC(=O)/C=C(C)/C(F)=C/C=C(C)/C=C/c1c(Cl)cc(OC)c(C)c1Cl`: the Antipapilloma activity in the assay on Mus musculus [1] is reported as -58%. Moreover, the Dose in the assay listed under Mus musculus [3] is 25 mg/kg/day.

In the case of `CCOC(=O)/C=C(C)/C(F)=C/C=C(C)/C=C/c1c(C)cc(C)c(Cl)c1C`, the Antipapilloma activity with Mus musculus [2] is -29%; in the assay on Mus musculus [5], -64%; in the assay with Mus musculus [6] it was -34%. In the assay listed under Mus musculus [3], this molecule came in with a Dose of over 200 mg/kg/day.

Consider `CCOC(=O)/C=C(C)/C=C/C=C(C)/C=C/c1c(C)cc(OC)c(C)c1C` [ETRETINATE], for which the Antipapilloma activity with Mus musculus [2] was -29%; in the assay on Mus musculus [5] it was -47%; in the assay on Mus musculus [6], -33%; with Mus musculus [4], 9%. The molecule further registered a Dose in the assay filed under Mus musculus [3] of 100 mg/kg/day.
